This is an account of results in patent publication US9758524B2, “4-imidazopyridazin-1-yl-benzamides as Btk inhibitors” (Merck Sharp & Dohme B.V., priority 2011, dated 2017).

Read-outs that look alike come from different tables or passages of the source.

The target in one experiment is Lck enzyme (Homo sapiens (Human), UniProt P06239). Kind of experiment: Lck enzyme activity (IMAP fluorescence polarization assay). As to conditions: read-out: EC50 Lck activity values; IMAP, 60 min pre-incubation, 6 μM ATP; bin bound in μM. Background: Fluorescence polarisation rises when a labelled molecule tumbles more slowly, as on binding a larger partner.
Sequence of Lck enzyme (P06239 whole entry): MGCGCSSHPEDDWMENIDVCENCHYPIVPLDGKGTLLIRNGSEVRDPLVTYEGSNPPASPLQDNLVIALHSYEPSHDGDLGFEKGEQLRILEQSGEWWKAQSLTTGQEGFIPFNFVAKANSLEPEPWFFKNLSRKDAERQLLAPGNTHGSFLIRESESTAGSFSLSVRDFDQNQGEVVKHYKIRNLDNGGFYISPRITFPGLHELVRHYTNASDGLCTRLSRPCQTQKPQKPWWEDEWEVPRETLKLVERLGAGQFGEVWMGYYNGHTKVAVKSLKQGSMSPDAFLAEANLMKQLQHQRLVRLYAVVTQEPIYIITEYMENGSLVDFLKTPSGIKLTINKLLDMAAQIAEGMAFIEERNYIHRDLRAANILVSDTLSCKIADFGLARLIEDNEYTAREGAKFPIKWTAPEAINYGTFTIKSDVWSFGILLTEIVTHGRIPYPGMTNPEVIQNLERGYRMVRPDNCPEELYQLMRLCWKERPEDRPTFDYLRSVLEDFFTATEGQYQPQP
A further experiment addresses Btk enzyme (His-Btk) (Homo sapiens (Human), UniProt Q06187). Kind of experiment: Btk enzyme activity (IMAP fluorescence polarization assay).
In the next experiment the target is FynT enzyme (Homo sapiens (Human), UniProt P06241). Kind of experiment: FynT enzyme activity (IMAP fluorescence polarization assay). It counts as biochemical. The settings on record: 60 min pre-incubation, 0.2 μM ATP. On the procedure:
FynT enzyme activity is measured using the IMAP (immobilized metal ion affinity-based fluorescence polarization) assay as outlined below.
Test compounds and FynT enzyme are pre-incubated 60 minutes at room temperature, before adding 5 μL/well of 400 nM Fluorescin labeled substrate peptide (p34cdc2 substrate peptide, e.g. #R7157/#R7172, Molecular Devices) in KR-buffer. Final peptide substrate concentration in assay is 100 nM. […] Following incubation for 2 h at room temperature the enzyme reaction is stopped by adding 40 μL/well IMAP Progressive Binding Solution (according to suppliers (Molecular Devices) protocol using 75% 1× buffer A and 25% 1× buffer B with 1:600 Progressive Binding Solution). After 60 min incubation at room temperature in the dark the FP signal is read. […] Values are calculated as percentage of the difference in readout (ΔmPi) of the controls with and without ATP. EC50 values are determined by curve fitting of the experimental results using Activity Base.

For the next experiment, the target named is Src enzyme (Homo sapiens (Human), UniProt P12931). Kind of experiment: Src enzyme activity (IMAP fluorescence polarization assay). As to conditions: read-out: EC50 Src activity values; IMAP, 60 min pre-incubation, 4 μM ATP.
Sequence of Src enzyme (P12931 whole entry, looked up): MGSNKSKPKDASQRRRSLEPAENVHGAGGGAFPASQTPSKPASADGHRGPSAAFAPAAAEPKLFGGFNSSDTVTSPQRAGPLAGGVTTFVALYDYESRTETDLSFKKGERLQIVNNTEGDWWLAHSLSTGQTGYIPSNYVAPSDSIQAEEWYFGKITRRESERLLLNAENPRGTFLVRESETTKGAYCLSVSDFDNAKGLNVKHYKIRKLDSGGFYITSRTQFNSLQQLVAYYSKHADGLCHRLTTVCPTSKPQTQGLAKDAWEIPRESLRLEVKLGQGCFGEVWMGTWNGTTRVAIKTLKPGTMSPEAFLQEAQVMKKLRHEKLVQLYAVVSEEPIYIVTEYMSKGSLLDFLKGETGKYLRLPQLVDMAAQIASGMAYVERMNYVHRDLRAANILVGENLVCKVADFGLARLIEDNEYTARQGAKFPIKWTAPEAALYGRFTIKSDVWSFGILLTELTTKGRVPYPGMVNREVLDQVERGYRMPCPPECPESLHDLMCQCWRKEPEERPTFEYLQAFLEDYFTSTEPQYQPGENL
In another experiment the target is Lyn enzyme (Homo sapiens (Human), UniProt P07948). Kind of experiment: Lyn enzyme activity (IMAP fluorescence polarization assay). As to conditions: read-out: EC50 Lyn activity values, 60 min pre-incubation, 2 μM ATP, bin bound in μM.
Sequence of Lyn enzyme (P07948 whole entry): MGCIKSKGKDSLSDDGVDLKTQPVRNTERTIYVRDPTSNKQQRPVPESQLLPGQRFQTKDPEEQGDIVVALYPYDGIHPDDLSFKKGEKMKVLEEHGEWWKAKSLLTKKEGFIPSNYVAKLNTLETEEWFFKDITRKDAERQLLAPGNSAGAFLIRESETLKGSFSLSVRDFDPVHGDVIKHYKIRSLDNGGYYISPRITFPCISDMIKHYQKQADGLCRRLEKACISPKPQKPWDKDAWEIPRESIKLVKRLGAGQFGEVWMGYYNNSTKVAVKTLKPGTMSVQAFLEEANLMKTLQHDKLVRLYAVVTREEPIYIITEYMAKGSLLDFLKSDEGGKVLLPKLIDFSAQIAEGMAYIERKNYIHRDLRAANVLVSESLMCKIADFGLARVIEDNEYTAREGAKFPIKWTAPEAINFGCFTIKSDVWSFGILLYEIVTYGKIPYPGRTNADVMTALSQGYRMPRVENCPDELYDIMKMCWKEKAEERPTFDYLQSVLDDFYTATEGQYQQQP
Where [1] appears, read: read-out: EC50 Btk activity values, IMAP, 60 min pre-incubation, 5 μM ATP, bin bound in nM.

The EC50 is the concentration giving half of the maximal effect.

Sequence of Btk enzyme (His-Btk) (Q06187 whole entry): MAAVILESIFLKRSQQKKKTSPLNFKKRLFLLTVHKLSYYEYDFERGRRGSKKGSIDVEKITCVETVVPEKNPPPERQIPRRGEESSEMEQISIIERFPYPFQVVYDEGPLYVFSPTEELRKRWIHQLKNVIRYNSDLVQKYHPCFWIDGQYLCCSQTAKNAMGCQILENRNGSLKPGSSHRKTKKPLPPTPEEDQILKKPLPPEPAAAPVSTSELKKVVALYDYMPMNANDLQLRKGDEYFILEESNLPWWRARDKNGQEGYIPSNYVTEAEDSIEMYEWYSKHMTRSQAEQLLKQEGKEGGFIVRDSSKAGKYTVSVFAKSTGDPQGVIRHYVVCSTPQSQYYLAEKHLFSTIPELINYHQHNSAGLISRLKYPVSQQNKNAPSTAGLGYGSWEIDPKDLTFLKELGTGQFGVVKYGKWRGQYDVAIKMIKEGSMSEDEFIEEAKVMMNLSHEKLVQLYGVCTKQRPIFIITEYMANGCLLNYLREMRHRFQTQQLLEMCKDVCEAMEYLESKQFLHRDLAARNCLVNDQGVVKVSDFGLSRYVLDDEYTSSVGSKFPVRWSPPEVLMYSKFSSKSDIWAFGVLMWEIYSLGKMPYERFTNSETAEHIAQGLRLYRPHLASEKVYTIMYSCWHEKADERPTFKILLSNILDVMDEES
Sequence of FynT enzyme (P06241 other isoform, or with tags, fused parts or gaps): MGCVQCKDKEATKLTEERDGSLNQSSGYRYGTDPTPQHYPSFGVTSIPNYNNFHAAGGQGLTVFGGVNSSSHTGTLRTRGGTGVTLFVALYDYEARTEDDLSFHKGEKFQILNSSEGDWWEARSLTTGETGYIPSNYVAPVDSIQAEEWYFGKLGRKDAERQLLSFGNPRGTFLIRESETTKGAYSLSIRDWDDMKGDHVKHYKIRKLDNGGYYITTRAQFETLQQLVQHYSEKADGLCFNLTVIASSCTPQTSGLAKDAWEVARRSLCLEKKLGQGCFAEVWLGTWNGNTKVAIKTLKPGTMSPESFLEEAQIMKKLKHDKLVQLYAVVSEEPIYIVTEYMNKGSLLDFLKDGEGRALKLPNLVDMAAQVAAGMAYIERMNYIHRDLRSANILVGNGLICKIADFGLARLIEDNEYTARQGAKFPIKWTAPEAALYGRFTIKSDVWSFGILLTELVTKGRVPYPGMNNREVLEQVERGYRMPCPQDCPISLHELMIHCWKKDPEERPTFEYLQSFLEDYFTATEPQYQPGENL
Method for Btk enzyme (His-Btk): Inhibition of kinase activity can be measured using the Immobilized Metal Assay for Phosphochemicals (IMAP) assay. IMAP is a homogeneous fluorescence polarization (FP) assay based on affinity capture of phosphorylated peptide substrates. IMAP uses fluorescein-labeled peptide substrates that, upon phosphorylation by a protein kinase, bind to so-called IMAP nanoparticles, which are derivatized with trivalent metal complexes.
Final peptide substrate concentration in assay is 50 nM.

On to `C=CC(=O)N1CCCC[C@H]1c1nc(-c2ccc(C(=O)Nc3cc(C#N)ccn3)cc2)c2c(N)nccn12` [Example 18, (S)-4-(3-(1-Acryloylpiperidin-2-yl)-8-aminoimidazo[1,5-a]pyrazin-1-yl)-N-(4-cyanopyridin-2-yl)benzamide], for which the EC50 on Lck enzyme was not below 1 µM; at Btk enzyme (His-Btk) (setting [1]) it was less than 10 nM; at FynT enzyme, not below 1000 nM; at Src enzyme, not below 1000 nM; on Lyn enzyme, not below 1 µM.

In the case of `C=CS(=O)(=O)N1CCCC[C@H]1c1nc(-c2ccc(C(=O)Nc3cc(C(F)(F)F)ccn3)cc2)c2c(N)nccn12` [Example 19, (S)-4-(8-Amino-3-(1-(vinylsulfonyl)piperidin-2-yl)imidazo[1,5-a]pyrazin-1-yl)-N-(4-(trifluoromethyl)pyridin-2-yl)benzamide], the EC50 on Lck enzyme is not below 1 µM; on Btk enzyme (His-Btk) (setting [1]) it was less than 10 nM; at FynT enzyme, not below 1000 nM; at Src enzyme, not below 1000 nM; at Lyn enzyme, not below 1 µM.

`C=CC(=O)N1CCCC[C@H]1c1nc(-c2ccc(C(=O)Nc3ncccn3)cc2)c2c(N)nccn12` [Example 20, (S)-4-(3-(1-Acryloylpiperidin-2-yl)-8-aminoimidazo[1,5-a]pyrazin-1-yl)-N-(pyrimidin-2-yl)benzamide]: the EC50 at Lck enzyme is not below 1 µM; on Btk enzyme (His-Btk) (setting [1]), less than 10 nM; at FynT enzyme, not below 1000 nM; on Src enzyme it was not below 1000 nM; at Lyn enzyme, not below 1 µM.

`C=CC(=O)N1CCCC[C@H]1c1nc(-c2ccc(C(=O)Nc3nccc(C)n3)cc2)c2c(N)nccn12` [Example 21, (S)-4-(3-(1-Acryloylpiperidin-2-yl)-8-aminoimidazo[1,5-a]pyrazin-1-yl)-N-(4-methylpyrimidin-2-yl)benzamide]: the EC50 is not below 1 µM on Lck enzyme; less than 10 nM on Btk enzyme (His-Btk) (setting [1]); not below 1000 nM at FynT enzyme; not below 1000 nM on Src enzyme; not below 1 µM at Lyn enzyme.

`CC#CC(=O)N1CCCC[C@H]1c1nc(-c2ccc(C(=O)Nc3ccncn3)cc2)c2c(N)nccn12` [Example 22, (S)-4-(8-Amino-3-(1-but-2-ynoylpiperidin-2-yl)imidazo[1,5-a]pyrazin-1-yl)-N-(pyrimidin-4-yl)benzamide]: the EC50 at Lck enzyme is not below 1 µM; on Btk enzyme (His-Btk) (setting [1]), less than 10 nM; on FynT enzyme, not below 1000 nM; at Src enzyme, not below 1000 nM; on Lyn enzyme, not below 1 µM.

With `CC#CC(=O)N1CCCC[C@H]1c1nc(-c2ccc(C(=O)Nc3cccnn3)cc2)c2c(N)nccn12` [Example 23, (S)-4-(8-Amino-3-(1-but-2-ynoylpiperidin-2-yl)imidazo[1,5-a]pyrazin-1-yl)-N-(pyridazin-3-yl)benzamide], the EC50 at Lck enzyme is not below 1 µM; on Btk enzyme (His-Btk) (setting [1]), less than 10 nM; at FynT enzyme it was not below 1000 nM; on Src enzyme, not below 1000 nM; at Lyn enzyme it was not below 1 µM.

Turning to `CC#CC(=O)N1CCCC[C@H]1c1nc(-c2ccc(C(=O)Nc3ccon3)cc2)c2c(N)nccn12` [Example 24, (S)-4-(8-Amino-3-(1-but-2-ynoylpiperidin-2-yl)imidazo[1,5-a]pyrazin-1-yl)-N-(isoxazol-3-yl)benzamide], the EC50 at Lck enzyme is not below 1 µM; at Btk enzyme (His-Btk) it was 10 to 100 nM; on FynT enzyme it was not below 1000 nM; on Src enzyme, not below 1000 nM; at Lyn enzyme, not below 1 µM. Moreover, the “EC50 Btk activity values” at Btk enzyme (His-Btk) (IMAP, 60 min pre-incubation, 5 μM ATP, bin bound in nM) was less than 100 nM.

Consider `CCc1cnc(NC(=O)c2ccc(-c3nc([C@@H]4CCCCN4C(=O)/C=C/COC)n4ccnc(N)c34)cc2)s1` [Example 25, (S,E)-4-(8-Amino-3-(1-(4-methoxybut-2-enoyl)piperidin-2-yl)imidazo[1,5-a]pyrazin-1-yl)-N-(5-ethylthiazol-2-yl)benzamide], for which the EC50 is not below 1 µM on Lck enzyme; less than 10 nM on Btk enzyme (His-Btk) (setting [1]); not below 1000 nM at FynT enzyme; not below 1000 nM at Src enzyme; not below 1 µM at Lyn enzyme.

Regarding `C=CC(=O)N1CCCC[C@H]1c1nc(-c2ccc(C(=O)Nc3cc(CCC)ccn3)c(F)c2)c2c(N)nccn12` [Example 26, (S)-4-(3-(1-Acryloylpiperidin-2-yl)-8-aminoimidazo[1,5-a]pyrazin-1-yl)-2-fluoro-N-(4-propylpyridin-2-yl)benzamide], the EC50 at Lck enzyme was not below 1 µM; on Btk enzyme (His-Btk) (setting [1]), less than 10 nM; at FynT enzyme, not below 1000 nM; on Src enzyme, not below 1000 nM; at Lyn enzyme, not below 1 µM.

On to `CCCc1ccnc(NC(=O)c2ccc(-c3nc([C@@H]4CCCCN4C(=O)/C=C/CN(C)C)n4ccnc(N)c34)cc2OC)c1` [Example 27, (S,E)-4-(8-Amino-3-(1-(4-(dimethylamino)but-2-enoyl)piperidin-2-yl)imidazo[1,5-a]pyrazin-1-yl)-2-methoxy-N-(4-propylpyridin-2-yl)benzamide], for which the half-maximal effective concentration (EC50) is not below 1 µM at Lck enzyme; less than 10 nM at Btk enzyme (His-Btk) (setting [1]); not below 1000 nM on FynT enzyme; not below 1000 nM on Src enzyme; not below 1 µM on Lyn enzyme.

As to `CC#CC(=O)N1CCCC[C@H]1c1nc(-c2ccc(C(=O)Nc3ccccn3)cc2C)c2c(N)nccn12` [Example 28, 4-(8-Amino-3-((S)-1-but-2-ynoylpiperidin-2-yl)imidazo[1,5-a]pyrazin-1-yl)-3-methyl-N-(pyridin-2-yl)benzamide], the EC50 on Lck enzyme is not below 1 µM; on Btk enzyme (His-Btk) (setting [1]) it was less than 10 nM; on FynT enzyme it was not below 1000 nM; on Src enzyme it was not below 1000 nM; on Lyn enzyme, not below 1 µM.

As to `C=CC(=O)NCc1nc(-c2ccc(C(=O)Nc3ccccn3)cc2)c2c(N)nccn12` [Example 29, 4-(3-(Acrylamidomethyl)-8-aminoimidazo[1,5-a]pyrazin-1-yl)-N-(pyridin-2-yl)benzamide], the EC50 is not below 1 µM on Lck enzyme; less than 10 nM at Btk enzyme (His-Btk) (setting [1]); not below 1000 nM on FynT enzyme; not below 1000 nM on Src enzyme; not below 1 µM at Lyn enzyme.

As to `CC#CC(=O)N[C@@H](C)c1nc(-c2ccc(C(=O)Nc3ccccn3)cc2)c2c(N)nccn12` [Example 30, (S)-4-(8-Amino-3-(1-but-2-ynamidoethyl)imidazo[1,5-a]pyrazin-1-yl)-N-(pyridin-2-yl)benzamide], the EC50 was not below 1 µM at Lck enzyme; less than 10 nM at Btk enzyme (His-Btk) (setting [1]); not below 1000 nM on FynT enzyme; not below 1000 nM at Src enzyme; not below 1 µM at Lyn enzyme.

As to `CC(=O)SCC(=O)N1CCC[C@H]1c1nc(-c2ccc(C(=O)Nc3ccccn3)cc2)c2c(N)nccn12` [Example 31, (S)—S-2-(2-(8-Amino-1-(4-(pyridin-2-ylcarbamoyl)phenyl)imidazo[1,5-a]pyrazin-3-yl)pyrrolidin-1-yl)-2-oxoethyl ethanethioate], the EC50 on Lck enzyme was not below 1 µM; on Btk enzyme (His-Btk) (setting [1]) it was less than 10 nM; at FynT enzyme it was not below 1000 nM; on Src enzyme, not below 1000 nM; on Lyn enzyme, not below 1 µM.

For `CC(C)(O)C#CC(=O)N1CCC[C@H]1c1nc(-c2ccc(C(=O)Nc3ccccn3)cc2)c2c(N)nccn12` [Example 32, (S)-4-(8-Amino-3-(1-(4-hydroxy-4-methylpent-2-ynoyl)pyrrolidin-2-yl)imidazo[1,5-a]pyrazin-1-yl)-N-(pyridin-2-yl)benzamide], the EC50 was not below 1 µM on Lck enzyme; less than 10 nM at Btk enzyme (His-Btk) (setting [1]); not below 1000 nM on FynT enzyme; not below 1000 nM on Src enzyme; not below 1 µM on Lyn enzyme.

Turning to `Nc1nccn2c([C@@H]3CCCN3C(=O)c3cc(Cl)ncn3)nc(-c3ccc(C(=O)Nc4ccccn4)cc3)c12` [Example 33, (S)-4-(8-Amino-3-(1-(6-chloropyrimidine-4-carbonyl)pyrrolidin-2-yl)imidazo[1,5-a]pyrazin-1-yl)-N-(pyridin-2-yl)benzamide], the EC50 on Lck enzyme is not below 1 µM; on Btk enzyme (His-Btk) (setting [1]), less than 10 nM; at FynT enzyme, not below 1000 nM; on Src enzyme it was not below 1000 nM; on Lyn enzyme, not below 1 µM.

Consider `CCC#CC(=O)N1CCC[C@H]1c1nc(-c2ccc(C(=O)Nc3ccccn3)cc2)c2c(N)nccn12` [Example 34, (S)-4-(8-Amino-3-(1-pent-2-ynoylpyrrolidin-2-yl)imidazo[1,5-a]pyrazin-1-yl)-N-(pyridin-2-yl)benzamide], for which the EC50 at Lck enzyme was not below 1 µM; on Btk enzyme (His-Btk) (setting [1]), less than 10 nM; on FynT enzyme, not below 1000 nM; on Src enzyme, not below 1000 nM; on Lyn enzyme it was not below 1 µM.

`Nc1nccn2c([C@@H]3CCCN3C(=O)C#CC3CC3)nc(-c3ccc(C(=O)Nc4ccccn4)cc3)c12` [Example 35, (S)-4-(8-Amino-3-(1-(3-cyclopropylpropioloyl)pyrrolidin-2-yl)imidazo[1,5-a]pyrazin-1-yl)-N-(pyridin-2-yl)benzamide]: the EC50 on Lck enzyme was not below 1 µM; on Btk enzyme (His-Btk) (setting [1]), less than 10 nM; on FynT enzyme, not below 1000 nM; at Src enzyme it was not below 1000 nM; at Lyn enzyme, not below 1 µM.
